Experimental data from US10421760B2, “Pyrrolo[2,3-d]pyrimidine compound or salt thereof” (TAIHO PHARMACEUTICAL CO., LTD., priority 2015, dated 2019).

Assays:
[1] = target: purified recombinant human JAK1 protein (Homo sapiens (Human), UniProt P23458); assay: JAK1 kinase-inhibiting activity (mobility shift, LabChip EZ Reader II); format: biochemical; details: ATP 75 μM, 25° C., 120 minutes
Description: 1) Measurement of JAK1 Kinase-Inhibiting Activity
The activity of the compound of the present invention to inhibit the activity of JAK1 kinase was measured.
(§1) Among materials for the measurement of this inhibiting activity, a substrate peptide and a kinase protein were acquired as follows. As such a substrate peptide, a substrate peptide for QSS Assist JAK1-MSA assay kit (Carna Biosciences, Inc.) was purchased. As such a kinase protein, a purified recombinant human JAK1 protein (Carna Biosciences, Inc.) was purchased.
The method for measuring the inhibiting activity is as follows. First, the compounds of the present invention were each dissolved in dimethyl sulfoxide (DMSO), and a serial dilution was then prepared using DMSO. Subsequently, a serial dilution solution of the compound (the final concentration of DMSO upon a kinase reaction: 5.0%) or DMSO (final concentration: 5.0%) was mixed with a solution comprising the substrate peptide (final concentration: 1 μM), magnesium chloride (final concentration: 5 mM) and ATP (final concentration: 75 μM) in a buffer for kinase reaction (20 mM HEPES (pH 7.5), 2 mM dithiothreitol and 0.01% Triton X-100). Thereafter, a JAK1 protein was further added to the mixed solution, and the obtained mixture was then incubated at 25° C. for 120 minutes to carry out a kinase reaction. To the reaction solution, EDTA was added to a final concentration of 30 mM, so as to terminate the reaction. Finally, using LabChip EZ Reader II (Perkin Elmer Corp.), an unphosphorylated substrate peptide (S) and a phosphorylated peptide (P) were subjected to microchannel capillary electrophoresis, so that the two peptides were separated from each other and were then detected. The amount of a phosphorylation reaction was obtained based on the heights of the peaks of S and P, and the concentration of the compound capable of inhibiting 50% of the phosphorylation reaction was defined as an IC50 value (nM).

[2] = target: purified recombinant human JAK2 protein (Homo sapiens (Human), UniProt O60674); assay: JAK2 kinase-inhibiting activity (mobility shift, LabChip EZ Reader II); format: biochemical; details: ATP 10 μM, 25° C., 80 minutes
Description: 2) Measurement of JAK2 Kinase-Inhibiting Activity
The activity of the compound of the present invention to inhibit the activity of JAK2 kinase was measured.
as §1, with “FL-Peptide 22 (Perkin Elmer Corp.)” for “a substrate peptide for QSS Assist JAK1-MSA assay kit (Carna Biosciences, Inc.)”, “JAK2” for “JAK1”
(§2) The method for measuring the inhibiting activity is as follows. First, a serial dilution of the compound of the present invention was prepared by the same method as that described in the above section regarding JAK1. This serial dilution solution (the final concentration of DMSO upon a kinase reaction: 5.0%) or DMSO (final concentration: 5.0%) was mixed with a solution comprising the substrate peptide (final concentration: 1 μM), magnesium chloride (final concentration: 10 mM) and ATP (final concentration: 10 μM) in a buffer for kinase reaction (15 mM Tris (pH 7.5), 2 mM dithiothreitol and 0.01% Tween 20). Thereafter, a JAK2 protein was further added to the mixed solution, and the obtained mixture was then incubated at 25° C. for 80 minutes to carry out a kinase reaction. To the reaction solution, EDTA was added to a final concentration of 30 mM, so as to terminate the reaction. After termination of the reaction, the measurement and the data analysis were carried out by the same methods as those described in the above section regarding JAK1.

[3] = target: purified recombinant human JAK3 protein (Homo sapiens (Human), UniProt P52333); assay: JAK3 kinase-inhibiting activity (mobility shift, LabChip EZ Reader II); format: biochemical; details: ATP 5 μM, 25° C., 80 minutes
Description: 3) Measurement of JAK3 Kinase-Inhibiting Activity
The activity of the compound of the present invention to inhibit the activity of JAK3 kinase was measured.
as §1, with “JAK3-MSA” for “JAK1-MSA”, “JAK3” for “JAK1”
as §2, with “5” for “10”, “(20” for “(15”, “HEPES” for “Tris”, “Triton X-100).” for “Tween 20).”, “JAK3” for “JAK2”

human PBMC = assay: IL-2-dependent growth of human peripheral blood mononuclear cells (CellTiter-Glo); format: cell-based; details: 48 h, IL-2 2 ng/mL stimulation, 2 days
Description: The activity of the compound of the present invention to inhibit the IL-2-dependent growth reaction of human PBMC, which is caused by JAK3, was measured (Arthritis Rheum. 2010; 62(8): 2283-93).
Using a medium comprising 10 μg/mL PHA-M (Sigma) (which is RPMI-1640 (Sigma) comprising 10% human serum type AB (MP Biomedicals)), human PBMC (C.T.L.) (cell density: 1×10^6 cells/mL) was cultured at 37° C. in a culture vessel comprising 5% carbon dioxide for 3 days. Thereafter, the culture was washed with RPMI-1640 four times, and a medium (RPMI-1640 comprising 10% human serum type AB) was then added to the resultant culture to prepare a cell suspension. The cells (1×10^4 cells per well) and the serially diluted compound of the present invention were added to each well of a 96-well U-bottom microplate, and the thus obtained mixture was then cultured at 37° C. in a culture vessel comprising 5% carbon dioxide for 30 minutes. After completion of the culture, recombinant human IL-2 (Peprotech) was added to the culture to a final concentration of 2 ng/mL, and the obtained mixture was then stirred at 37° C. in a culture vessel comprising 5% carbon dioxide for 2 days (1×10^4 cells/100 μl/each well). After completion of the culture, the resultant was left at a room temperature for 30 minutes, and 100 μl of CellTiter-Glo Luminescent Cell Viability Assay (Promega) was then added to the resultant, followed by stirring it. Thereafter, the reaction mixture was left for 10 minutes, and the amount of a luminescence derived from living cells in each well was then measured using a microplate reader (TECAN). The inhibition rate of the present compound to the cell growth caused by IL-2 stimulation was calculated, and the concentration of the compound capable of inhibiting 50% of the cell growth was defined as an IC50 value (nM).

[4] = tested on: IL-2-induced IFN-γ production; assay: Mouse IL-2-induced IFN-γ production test; format: in vivo; details: oral 1 mg/kg and 3 mg/kg, serum 3 hours after IL-2, BALB/c mice
Description: The inhibitory activity of the compound of the present invention and the compounds of comparative examples on mouse IL-2-induced IFN-γ production caused by JAK3 was measured (Arthritis Rheum. 2010; 62 (8): 2283-93, Inflammation Research 2015; 64 (1): 41-51).
Seven-week-old male BALB/c mice (Charles River Japan) were divided into five groups (6 mice per group), namely, a vehicle group, a Compound 7 (1 mpk) group, a Compound 7 (3 mpk) group, a Comparative Example 12 (1 mpk) group, and a Comparative Example 12 (3 mpk) group. Compound 7 and the compound of Comparative Example 12 were each administered to the 1 mpk group and the 3 mpk group via oral administration at doses of 1 mg/kg and 3 mg/kg, respectively. […] Three hours after administration of IL-2, blood was collected from all of the five groups, and the IFN-γ concentration in the serum was measured using BD In Vivo Capture Assay for Mouse IFN-γ (BD Biosciences). The relative amount of IFN-γ generated by IL-2 stimulation was calculated according to the following calculation formula: Relative amount of IFN-γ=(IFN-γ concentration of each group)×100/(IFN-γ concentration of vehicle group), and the results are shown in FIG. 1 (mean value±standard error: regarding vs Vehicle, Dunnett test, *: p<0.05, ***: p<0.001; regarding vs Comparative Example 12 (3 mpk), Student t-test, ##: p<0.01).

Chain of purified recombinant human JAK3 protein (P52333 whole entry): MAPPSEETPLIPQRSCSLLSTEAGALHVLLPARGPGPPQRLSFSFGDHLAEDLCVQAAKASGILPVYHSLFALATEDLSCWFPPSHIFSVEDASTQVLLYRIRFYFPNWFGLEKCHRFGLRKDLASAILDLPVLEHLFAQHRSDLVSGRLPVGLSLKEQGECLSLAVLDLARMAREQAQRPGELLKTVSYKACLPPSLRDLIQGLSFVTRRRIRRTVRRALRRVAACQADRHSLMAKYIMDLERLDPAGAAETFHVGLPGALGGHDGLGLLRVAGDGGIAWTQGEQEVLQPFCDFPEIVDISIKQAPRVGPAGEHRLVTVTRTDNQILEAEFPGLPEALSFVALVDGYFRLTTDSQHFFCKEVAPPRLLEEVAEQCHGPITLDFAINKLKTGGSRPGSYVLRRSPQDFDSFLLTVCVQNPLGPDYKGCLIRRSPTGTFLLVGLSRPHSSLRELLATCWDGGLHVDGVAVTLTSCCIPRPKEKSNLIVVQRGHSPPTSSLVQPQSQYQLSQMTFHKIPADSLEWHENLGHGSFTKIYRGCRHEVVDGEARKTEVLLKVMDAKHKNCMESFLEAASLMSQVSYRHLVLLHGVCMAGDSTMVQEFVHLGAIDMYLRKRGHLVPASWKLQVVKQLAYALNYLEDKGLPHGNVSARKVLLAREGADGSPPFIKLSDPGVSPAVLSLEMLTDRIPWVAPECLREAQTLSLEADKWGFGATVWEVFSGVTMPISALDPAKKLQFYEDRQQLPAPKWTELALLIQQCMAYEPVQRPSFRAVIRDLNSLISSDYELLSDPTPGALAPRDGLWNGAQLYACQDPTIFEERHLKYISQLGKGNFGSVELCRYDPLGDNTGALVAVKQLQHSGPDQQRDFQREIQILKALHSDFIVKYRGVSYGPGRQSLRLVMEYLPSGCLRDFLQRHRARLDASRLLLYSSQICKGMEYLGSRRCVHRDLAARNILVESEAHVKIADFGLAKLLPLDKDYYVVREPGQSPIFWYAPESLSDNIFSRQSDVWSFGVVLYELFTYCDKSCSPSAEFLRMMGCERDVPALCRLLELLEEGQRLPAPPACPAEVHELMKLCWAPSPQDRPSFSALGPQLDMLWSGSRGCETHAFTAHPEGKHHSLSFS
Chain of purified recombinant human JAK2 protein (O60674 whole entry): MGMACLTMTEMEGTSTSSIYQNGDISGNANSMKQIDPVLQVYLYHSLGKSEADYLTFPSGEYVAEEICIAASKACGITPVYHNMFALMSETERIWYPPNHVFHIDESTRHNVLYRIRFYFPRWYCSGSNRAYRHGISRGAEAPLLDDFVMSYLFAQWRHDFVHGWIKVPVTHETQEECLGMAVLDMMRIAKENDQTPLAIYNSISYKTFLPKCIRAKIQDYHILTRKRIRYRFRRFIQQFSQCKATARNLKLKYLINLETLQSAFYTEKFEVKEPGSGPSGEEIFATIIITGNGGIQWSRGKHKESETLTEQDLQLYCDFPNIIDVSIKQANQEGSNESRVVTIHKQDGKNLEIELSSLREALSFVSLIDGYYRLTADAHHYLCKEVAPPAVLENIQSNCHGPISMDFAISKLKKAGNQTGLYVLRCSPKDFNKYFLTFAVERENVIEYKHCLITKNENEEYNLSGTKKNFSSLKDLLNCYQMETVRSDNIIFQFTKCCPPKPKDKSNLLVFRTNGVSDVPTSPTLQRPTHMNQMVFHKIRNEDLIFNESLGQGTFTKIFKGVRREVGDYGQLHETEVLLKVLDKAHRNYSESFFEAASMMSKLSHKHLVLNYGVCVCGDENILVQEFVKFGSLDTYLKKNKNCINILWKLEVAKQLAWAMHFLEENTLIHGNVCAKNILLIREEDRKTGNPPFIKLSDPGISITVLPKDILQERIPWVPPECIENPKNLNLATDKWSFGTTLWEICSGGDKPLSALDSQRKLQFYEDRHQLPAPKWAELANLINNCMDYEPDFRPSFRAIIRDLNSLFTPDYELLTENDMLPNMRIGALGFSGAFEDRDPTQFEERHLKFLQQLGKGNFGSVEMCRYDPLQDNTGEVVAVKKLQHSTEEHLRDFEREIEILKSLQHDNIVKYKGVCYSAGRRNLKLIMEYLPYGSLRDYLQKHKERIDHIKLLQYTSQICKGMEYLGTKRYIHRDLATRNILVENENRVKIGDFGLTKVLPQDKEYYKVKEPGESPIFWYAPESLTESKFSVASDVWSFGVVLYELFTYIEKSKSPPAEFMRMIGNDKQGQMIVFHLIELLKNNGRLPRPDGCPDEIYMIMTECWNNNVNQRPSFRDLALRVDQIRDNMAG
Chain of purified recombinant human JAK1 protein (P23458 whole entry): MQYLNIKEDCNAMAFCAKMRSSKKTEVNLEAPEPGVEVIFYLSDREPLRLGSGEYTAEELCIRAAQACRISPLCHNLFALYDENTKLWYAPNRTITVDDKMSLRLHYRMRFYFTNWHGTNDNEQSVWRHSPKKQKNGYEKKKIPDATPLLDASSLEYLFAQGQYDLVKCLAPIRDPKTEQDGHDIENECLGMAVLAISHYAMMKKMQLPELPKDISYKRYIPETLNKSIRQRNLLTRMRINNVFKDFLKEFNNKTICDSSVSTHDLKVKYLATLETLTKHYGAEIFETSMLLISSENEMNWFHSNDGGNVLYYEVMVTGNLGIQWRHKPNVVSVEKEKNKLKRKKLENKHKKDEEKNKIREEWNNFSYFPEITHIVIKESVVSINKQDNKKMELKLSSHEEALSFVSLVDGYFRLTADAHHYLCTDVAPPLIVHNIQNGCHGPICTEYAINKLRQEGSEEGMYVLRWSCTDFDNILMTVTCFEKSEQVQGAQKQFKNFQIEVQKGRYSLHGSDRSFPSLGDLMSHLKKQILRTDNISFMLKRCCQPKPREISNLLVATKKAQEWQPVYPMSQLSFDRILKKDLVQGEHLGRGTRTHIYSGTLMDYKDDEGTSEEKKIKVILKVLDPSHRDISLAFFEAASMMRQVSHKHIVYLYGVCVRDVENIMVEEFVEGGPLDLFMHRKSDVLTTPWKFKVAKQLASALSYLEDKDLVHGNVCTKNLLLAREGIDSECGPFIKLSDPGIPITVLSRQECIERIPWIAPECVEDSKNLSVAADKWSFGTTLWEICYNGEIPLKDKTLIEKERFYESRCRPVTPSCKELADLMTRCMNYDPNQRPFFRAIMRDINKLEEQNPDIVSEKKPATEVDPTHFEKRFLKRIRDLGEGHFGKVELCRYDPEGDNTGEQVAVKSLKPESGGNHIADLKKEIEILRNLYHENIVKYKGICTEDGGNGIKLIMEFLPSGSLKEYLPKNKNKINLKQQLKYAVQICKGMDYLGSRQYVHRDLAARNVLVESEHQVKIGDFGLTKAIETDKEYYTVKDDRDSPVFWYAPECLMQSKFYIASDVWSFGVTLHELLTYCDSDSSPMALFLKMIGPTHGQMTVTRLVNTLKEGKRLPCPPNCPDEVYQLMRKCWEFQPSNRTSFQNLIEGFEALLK

IC50 [1] [nM]	IC50 [2] [nM]	IC50 [3] [nM]	SMILES	IC50 (human PBMC) [nM]	suppression of IFN-γ production in vivo [4]
2100	880	< 0.3	C=CC(=O)NC1CC=C(c2ncnc3[nH]cc(-c4ccccc4)c23)C1 (stereo not shown) [Compound 9, N-(3-(5-Phenyl-7H-pyrrolo[2,3-d]pyrimidin-4-yl)cyclopent-3-en-1-yl)acrylamide]	99	–
720	430	< 0.3	C=CC(=O)NC1CCC=C(c2ncnc3[nH]cc(-c4ccco4)c23)C1 (stereo not shown) [Compound 5, N-(3-(5-(Furan-2-yl)-7H-pyrrolo[2,3-d]pyrimidin-4-yl)cyclohex-3-en-1-yl)acrylamide]	38	–
3200	490	< 0.3	C=CC(=O)NC1C=C(c2ncnc3[nH]cc(-c4cccs4)c23)CCC1 (stereo not shown) [Compound 13, N-(3-(5-(Thiophen-2-yl)-7H-pyrrolo[2,3-d]pyrimidin-4-yl)cyclohex-2-en-1-yl)acrylamide]	110	–
> 10000	880	19	C=CC(=O)N[C@H]1CCC[C@H](c2ncnc3[nH]cc(-c4ccco4)c23)C1 [Comparative Example 11(b), N-((1S,3S)-3-(5-(Furan-2-yl)-7H-pyrrolo[2,3-d]pyrimidin-4-yl)cyclohexyl)acrylamide, reference compound]	1940	–
5600	1200	< 0.3	C=CC(=O)NC1C=C(c2ncnc3[nH]cc(-c4ccsc4)c23)CCC1 (stereo not shown) [Compound 14, N-(3-(5-(Thiophen-3-yl)-7H-pyrrolo[2,3-d]pyrimidin-4-yl)cyclohex-2-en-1-yl)acrylamide]	110	–
> 1000	> 1000	0.09	C=CC(=O)Nc1cccc(-c2ncnc3[nH]cc(-c4ccccc4)c23)c1 [Comparative Example 12, N-(3-(5-Phenyl-7H-pyrrolo[2,3-d]pyrimidin-4-yl)phenyl)acrylamide, reference compound]	546	did not exhibit such a significant IFN-γ production-suppressing action
